How the values were obtained:
[1] = target: His-tagged recombinant human MER cytoplasmic domain (Homo sapiens (Human), UniProt Q12866); test: MER Enzyme Assay (LanthaScreen Eu Kinase Binding, TR-FRET); details: averaged IC50
Method in brief: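 LanthaScreen Eu kinase binding (tracer displacement) assay with His-tagged human MER cytoplasmic domain, 60 min incubation at 22 °C. TR-FRET dual-wavelength emission ratio converted to percent of control; IC50 is where the 4-parameter logistic fit crosses 50 POC.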

[2] = target: His-tagged recombinant human AXL cytoplasmic domain (Homo sapiens (Human), UniProt P30530); test: AXL Enzyme Assay (LanthaScreen Eu Kinase Binding, TR-FRET); details: averaged IC50
Chain of His-tagged recombinant human AXL cytoplasmic domain (P30530 473-894): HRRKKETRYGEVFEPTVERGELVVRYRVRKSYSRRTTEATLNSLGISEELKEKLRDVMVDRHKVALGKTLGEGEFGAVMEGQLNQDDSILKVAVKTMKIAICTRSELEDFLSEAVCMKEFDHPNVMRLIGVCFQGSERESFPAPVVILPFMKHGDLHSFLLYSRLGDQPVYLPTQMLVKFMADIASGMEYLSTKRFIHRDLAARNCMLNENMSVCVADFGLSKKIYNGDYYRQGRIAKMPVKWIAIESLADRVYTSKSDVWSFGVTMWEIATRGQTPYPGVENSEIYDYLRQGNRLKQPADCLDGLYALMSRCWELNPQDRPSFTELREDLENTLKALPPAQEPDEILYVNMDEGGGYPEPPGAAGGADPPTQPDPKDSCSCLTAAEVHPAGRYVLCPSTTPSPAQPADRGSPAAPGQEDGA
Protocol: Compounds of Formula I were screened for their ability to inhibit AXL kinase using Invitrogen's LanthaScreen™ Eu Kinase Binding technology. […] After a 60-minute incubation at 22° C., the reaction was measured using a PerkinElmer EnVision multimode plate reader via TR-FRET dual wavelength detection, and the percent of control (POC) was calculated using a ratiometric emission factor. […] The POC values are fit to a 4 parameter logistic curve and the IC50 value is point where the curve crosses 50 POC.

Chain of His-tagged recombinant human MER cytoplasmic domain (Q12866 527-999): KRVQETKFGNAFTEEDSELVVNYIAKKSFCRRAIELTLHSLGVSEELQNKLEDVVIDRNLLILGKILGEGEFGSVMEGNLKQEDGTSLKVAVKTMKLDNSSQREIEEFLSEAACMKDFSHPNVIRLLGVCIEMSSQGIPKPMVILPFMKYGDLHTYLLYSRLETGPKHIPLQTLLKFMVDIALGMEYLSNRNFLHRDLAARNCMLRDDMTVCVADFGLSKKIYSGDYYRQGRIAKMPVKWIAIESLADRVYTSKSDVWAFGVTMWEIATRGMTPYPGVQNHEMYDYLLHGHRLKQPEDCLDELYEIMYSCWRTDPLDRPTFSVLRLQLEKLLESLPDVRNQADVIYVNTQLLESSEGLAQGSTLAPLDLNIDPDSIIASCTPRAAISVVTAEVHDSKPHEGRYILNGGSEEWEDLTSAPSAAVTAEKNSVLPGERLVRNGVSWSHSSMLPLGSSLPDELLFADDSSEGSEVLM

| SMILES | IC50 [1] [µM] | IC50 [2] [µM] |
| --- | --- | --- |
| CNc1cc2c(cn1)c(-c1cnn(C)c1)nn2[C@H]1CC[C@@H](Oc2cccnc2C)CC1 [Example 135, N-methyl-3-(1-methyl-1H-pyrazol-4-yl)-1-((1s,4s)-4-((2-methylpyridin-3-yl)oxy)cyclohexyl)-1H-pyrazolo[4,3-c]pyridin-6-amine] | < 0.01 | < 0.01 |
| CCc1ncccc1O[C@H]1CC[C@@H](n2nc(-c3cnn(C)c3)c3cnc(NC)cc32)CC1 [Example 145, 1-((1s,4s)-4-((2-ethylpyridin-3-yl)oxy)cyclohexyl)-N-methyl-3-(1-methyl-1H-pyrazol-4-yl)-1H-pyrazolo[4,3-c]pyridin-6-amine] | < 0.01 | < 0.01 |
| CNc1cc2c(cn1)c(-c1cnn(C)c1)nn2[C@H]1CC[C@@H](Oc2cccnc2F)CC1 [Example 146, 1-((1s,4s)-4-((2-fluoropyridin-3-yl)oxy)cyclohexyl)-N-methyl-3-(1-methyl-1H-pyrazol-4-yl)-1H-pyrazolo[4,3-c]pyridin-6-amine] | < 0.01 | < 0.01 |
| CNc1cc2c(cn1)c(-c1cnn(C)c1)nn2[C@H]1CC[C@@H](Oc2nccnc2C)CC1 [Example 150, N-methyl-3-(1-methyl-1H-pyrazol-4-yl)-1-((1s,4s)-4-((3-methylpyrazin-2-yl)oxy)cyclohexyl)-1H-pyrazolo[4,3-c]pyridin-6-amine] | < 0.01 | < 0.01 |
| CNc1cc2c(cn1)c(-c1cnn(C)c1)nn2[C@H]1CC[C@@H](Oc2cc(C(F)(F)F)ccn2)CC1 [Example 170, N-methyl-3-(1-methyl-1H-pyrazol-4-yl)-1-((1s,4s)-4-((4-(trifluoromethyl)pyridin-2-yl)oxy)cyclohexyl)-1H-pyrazolo[4,3-c]pyridin-6-amine] | < 0.01 | < 0.01 |
| CNc1cc2c(cn1)c(-c1cnn(C(C)(C)C#N)c1)nn2[C@H]1CC[C@@H](Oc2cccnc2C)CC1 [Example 202, 2-methyl-2-(4-(6-(methylamino)-1-((1s,4s)-4-((2-methylpyridin-3-yl)oxy)cyclohexyl)-1H-pyrazolo[4,3-c]pyridin-3-yl)-1H-pyrazol-1-yl)propanenitrile] | < 0.01 | < 0.01 |
| CNc1cc2c(cn1)c(-c1ccc(CN3CCN(C)CC3)cc1)nn2[C@H]1CC[C@@H](Oc2cnn(C)c2)CC1 [Example 232, N-methyl-1-((1s,4s)-4-((1-methyl-1H-pyrazol-4-yl)oxy)cyclohexyl)-3-(4-((4-methylpiperazin-1-yl)methyl)phenyl)-1H-pyrazolo[4,3-c]pyridin-6-amine] | < 0.01 | < 0.01 |
| CCNc1cc2c(cn1)c(-c1cn(C)c(=O)cn1)nn2[C@H]1CC[C@@H](Oc2nccc(C(F)(F)F)c2F)CC1 [Example 257, 5-(6-(ethylamino)-1-((1s,4s)-4-((3-fluoro-4-(trifluoromethyl)pyridin-2-yl)oxy)cyclohexyl)-1H-pyrazolo[4,3-c]pyridin-3-yl)-1-methylpyrazin-2(1H)-one] | < 0.01 | < 0.01 |
| CCNc1cc2c(cn1)c(-c1cnc(C)nc1)nn2[C@H]1CC[C@@H](Oc2nccc(C(F)(F)F)c2F)CC1 [Example 268, N-ethyl-1-((1s,4s)-4-((3-fluoro-4-(trifluoromethyl)pyridin-2-yl)oxy)cyclohexyl)-3-(2-methylpyrimidin-5-yl)-1H-pyrazolo[4,3-c]pyridin-6-amine] | < 0.01 | < 0.01 |
| CCNc1cc2c(cn1)c(C1CCOCC1)nn2[C@H]1CC[C@@H](Oc2nccc(C(F)(F)F)c2F)CC1 [Example 317, N-ethyl-1-((1s,4s)-4-((3-fluoro-4-(trifluoromethyl)pyridin-2-yl)oxy)cyclohexyl)-3-(tetrahydro-2H-pyran-4-yl)-1H-pyrazolo[4,3-c]pyridin-6-amine] | < 0.01 | < 0.01 |
| CCNc1cc2c(cn1)c(-c1cnn(C)c1)nn2[C@H]1CC[C@@H](Oc2ccc(C(=O)NC)cc2F)CC1 [Example 460, 4-(((1s,45)-4-(6-(ethylamino)-3-(1-methyl-1H-pyrazol-4-yl)-1H-pyrazolo[4,3-c]pyridin-1-yl)cyclohexyl)oxy)-3-fluoro-N-methylbenzamide] | – | < 0.01 |

Other lines, results leading:

| IC50 [1] [µM] | IC50 [2] [µM] | SMILES |
| --- | --- | --- |
| < 0.01 | < 0.01 | CNc1cc2c(cn1)c(-c1ccc(CN3CCN(C)CC3)cc1)nn2[C@H]1CC[C@@H](Oc2ccc(=O)n(C)n2)CC1 [Example 27, 2-methyl-6-(((1s,4s)-4-(6-(methylamino)-3-(4-((4-methylpiperazin-1-yl)methyl)phenyl)-1H-pyrazolo[4,3-c]pyridin-1-yl)cyclohexyl)oxy)pyridazin-3(2H)-one] |
| – | < 0.01 | CCn1nc(O[C@H]2CC[C@@H](n3nc(-c4ccc(CN5CCN(C)CC5)cc4)c4cnc(NC)cc43)CC2)ccc1=O [Example 79, 2-ethyl-6-(((1s,4s)-4-(6-(methylamino)-3-(4-((4-methylpiperazin-1-yl)methyl)phenyl)-1H-pyrazolo[4,3-c]pyridin-1-yl)cyclohexyl)oxy)pyridazin-3(2H)-one] |
| < 0.01 | < 0.01 | CNc1cc2c(cn1)c(-c1cnn(C)c1)nn2[C@H]1CC[C@@H](Oc2ncccc2F)CC1 [Example 122, 1-((1s,4s)-4-((3-fluoropyridin-2-yl)oxy)cyclohexyl)-N-methyl-3-(1-methyl-1H-pyrazol-4-yl)-1H-pyrazolo[4,3-c]pyridin-6-amine] |
| < 0.01 | < 0.01 | CNc1cc2c(cn1)c(-c1cnn(C)c1)nn2[C@H]1CC[C@@H](Oc2ncccc2C(F)(F)F)CC1 [Example 125, N-methyl-3-(1-methyl-1H-pyrazol-4-yl)-1-((1s,4s)-4-((3-(trifluoromethyl)pyridin-2-yl)oxy)cyclohexyl)-1H-pyrazolo[4,3-c]pyridin-6-amine] |
| < 0.01 | < 0.01 | CNc1cc2c(cn1)c(-c1cnn(C(C)(C)CO)c1)nn2[C@H]1CC[C@@H](Oc2nccnc2C)CC1 [Example 213, 2-methyl-2-(4-(6-(methylamino)-1-((1s,4s)-4-((3-methylpyrazin-2-yl)oxy)cyclohexyl)-1H-pyrazolo[4,3-c]pyridin-3-yl)-1H-pyrazol-1-yl)propan-1-ol] |
| < 0.01 | < 0.01 | CCNc1cc2c(cn1)c(-c1cnc(=O)n(C)c1)nn2C1CCC(Oc2nccc(C(F)(F)F)c2F)CC1 (centres unmarked) [Example 256, 5-(6-(ethylamino)-1-((1s,4s)-4-((3-fluoro-4-(trifluoromethyl)pyridin-2-yl)oxy)cyclohexyl)-1H-pyrazolo[4,3-c]pyridin-3-yl)-1-methylpyrimidin-2(1H)-one] |
| < 0.01 | < 0.01 | CCNc1cc2c(cn1)c(-c1cnn(CC(=O)N(C)C)c1)nn2[C@H]1CC[C@@H](Oc2nccc(C(F)(F)F)c2F)CC1 [Example 259, 2-(4-(6-(ethylamino)-1-((1s,4s)-4-((3-fluoro-4-(trifluoromethyl)pyridin-2-yl)oxy)cyclohexyl)-1H-pyrazolo[4,3-c]pyridin-3-yl)-1H-pyrazol-1-yl)-N,N-dimethylacetamide] |
| < 0.01 | < 0.01 | CNc1cc2c(cn1)c(-c1ccc3c(c1)CNC3=O)nn2[C@H]1CC[C@@H](Oc2cnn(C)c2C(F)(F)F)CC1 [Example 266, 5-(1-((1s,4s)-4-((1-methyl-5-(trifluoromethyl)-1H-pyrazol-4-yl)oxy)cyclohexyl)-6-(methylamino)-1H-pyrazolo[4,3-c]pyridin-3-yl)isoindolin-1-one] |
| – | 1 to 10 | Cn1cc(-c2nn([C@H]3CC[C@@H](Oc4ncccc4C(F)(F)F)CC3)c3cc(Nc4ccccc4)ncc23)cn1 [Example 306, 3-(1-methyl-1H-pyrazol-4-yl)-N-phenyl-1-((1s,4s)-4-((3-(trifluoromethyl)pyridin-2-yl)oxy)cyclohexyl)-1H-pyrazolo[4,3-c]pyridin-6-amine] |
| < 0.01 | < 0.01 | CCNc1cc2c(cn1)c(C1CCOC1)nn2[C@H]1CC[C@@H](Oc2nccc(C(F)(F)F)c2F)CC1 (some centres unmarked) [Example 323, N-ethyl-1-((1s,4s)-4-((3-fluoro-4-(trifluoromethyl)pyridin-2-yl)oxy)cyclohexyl)-3-(tetrahydrofuran-3-yl)-1H-pyrazolo[4,3-c]pyridin-6-amine] |
| < 0.01 | < 0.01 | CCNc1cc2c(cn1)c(N1CC[C@H](OC)C1)nn2[C@H]1CC[C@@H](Oc2nccc(C(F)(F)F)c2F)CC1 [Example 332, N-ethyl-1-((1s,4R)-4-((3-fluoro-4-(trifluoromethyl)pyridin-2-yl)oxy)cyclohexyl)-3-((S)-3-methoxypyrrolidin-1-yl)-1H-pyrazolo[4,3-c]pyridin-6-amine] |
| – | < 0.01 | CNc1cc2c(cn1)c(-c1cnn(C)c1)nn2[C@H]1CC[C@@H](Oc2ccc(F)cc2CN(C)C)CC1 [Example 370, 1-((1s,4s)-4-(2-((dimethylamino)methyl)-4-fluorophenoxy)cyclohexyl)-N-methyl-3-(1-methyl-1H-pyrazol-4-yl)-1H-pyrazolo[4,3-c]pyridin-6-amine] |
| – | 1 to 10 | Cn1cc(-c2nn([C@H]3CC[C@@H](Oc4ccccc4F)CC3)c3cc(NCCC4CC4)ncc23)cn1 [Example 402, N-(2-cyclopropylethyl)-1-((1s,4s)-4-(2-fluorophenoxy)cyclohexyl)-3-(1-methyl-1H-pyrazol-4-yl)-1H-pyrazolo[4,3-c]pyridin-6-amine] |
| – | 1 to 10 | Cn1cc(-c2nn([C@H]3CC[C@@H](Oc4cccc(F)c4F)CC3)c3cc(Nc4ccccc4)ncc23)cn1 [Example 486, 1-((1s,4s)-4-(2,3-difluorophenoxy)cyclohexyl)-3-(1-methyl-1H-pyrazol-4-yl)-N-phenyl-1H-pyrazolo[4,3-c]pyridin-6-amine] |

From patent US11247990B1, “Bicyclic fused pyridine compounds as inhibitors of TAM kinases” (ARRAY BIOPHARMA INC., priority 2017, dated 2022)
